The record followed here is patent US12116344B2, “Crystalline forms of a pharmaceutical compound” (Azafaros B.V., priority 2020, dated 2024).

“Also recorded” adds a separate entry of the source.

One data set concerns NPC (−/−) mice. Kind of data set: Clinical signs and tremor score in the Niemann-Pick type C mouse model. It counts as in vivo. The note with it: for Overall clinical signs: scores PND 56-70. On the procedure:
Out of the 38 mice to be included in this study, there were 30 NPC (−/−) knock-out (KO) mice, 4 NPC (+/−) heterozygous mice and 4 NPC (+/+) wild-type (WT, Balb/c) mice. NPC1(−/−) mice have a premature truncation of the protein deleting 11 out of 13 transmembrane domains leaving the first two transmembrane domains intact. NPC1(−/−) mice homozygous for the recessive NIH allele of the Niemann Pick type C1 gene (Npc1 ml N) show a dual deficiency of sphingomyelinase and glucocerebrosidase activity (JAX #003092). Animals were bred on a BALB/c OlaHsd background.
(§1) 24 NPC1 (−/−) mice (groups D to I) were treated per oral gavage (10 mL/kg) with AZ-3102-00 from post-natal day 11 (P11) to post-natal-day 70 (P70). Dosing will start at 1.5 mg/kg from P11 to P25, followed by 3 mg/kg from P26 to P70. Control mice included 6 NPC1 (−/−) and 4 NPC (+/−) mice treated with vehicle and 4 NPC (+/+) mice received AZ-3102-00 (groups A to C).
Definitions of Clinical Scores and Humane Endpoints Clinical Signs were monitored on a daily basis starting at P45 until the end of the study (according to the template shown in FIG. 18). The parameters “weight loss”, “general health”, “clinical findings” and “line specific findings” were recorded and rated according to a score scale. The sum of this score was used for evaluation.
Pink (=light grey) bars represent the appearance and duration of a high level of tremor (sore of 5); whereas the green (=dark grey) bars represent the appearance and duration of a slight or moderate tremor. […] Possible tremor scores: 0: no tremor1: Slight incoordination, slight-moderate tremor; 5: High level of Tremor, uncoordinated movement; 10: Reduced righting reflex (no animal achieved this score).

The next data set deals with Hexb (−/−) mice. Kind of data set: Clinical signs in mice suffering from Sandhoff disease. The note with it: initial data. The format is in vivo. The method, then: Mice suffering from Sandhoff disease were administered a therapeutically effective amount of AZ-3102.
The nature of data set [1]: Dynamic vapour sorption (DVS), hygroscopicity. The format is physicochemical. To be noted: listed as Form 3. On the procedure: Dynamic vapour sorption (DVS) measurements were performed with an SPS11-100n “Sorptions Prüfsystem” from ProUmid (formerly “Projekt Messtechnik”), August-Nagel-Str. 23, 89079 Ulm (Germany). About 5 mg to 20 mg of sample was put into an aluminum sample pan. Humidity change rates of 5% per hour were used. The applied measurement program can be described as follows:
The sample was placed on an aluminium or platinum holder on top of a microbalance and allowed to equilibrate at a relative humidity (RH) of 50% before starting the pre-defined humidity programs: • (1) 2 h at 50% RH • (2) 50→0% RH (5%/h); 5 h at 0% RH • (3) 0→95% RH (5%/h); 5 h at 95% RH • (4) 95→0% RH (5%/h); 5 h at 0% RH • (5) 0→95% RH (5%/h); 5 h at 95% RH • (6) 95→50% RH (5%/h); 2 h at 50% RH

For another data set, the system named is Calbindin-D28k. Kind of data set: Brain immunofluorescence of Calbindin-D28k (Purkinje cell marker). It counts as in vivo, mice. On the procedure: Mouse right hemi-brains were fixed by immersion in freshly prepared 4% paraformaldehyde in PB (pH 7.4) for two hours at room temperature. Afterwards, hemispheres were transferred to 15% sucrose/PBS and stored at 4° C. until sunk to ensure cryoprotection. Tissue blocks were then trimmed as needed, transferred to cryomolds, embedded in OCT medium, frozen in dry ice-cooled isopentane and stored in an ultra-deep freezer (set at −80° C. target temperature).
Five consecutive cryosections were sagittally cut at 10 μm thickness on a Leica cryotome. The next 25 sections per level were discarded. This collection scheme was repeated for 12 levels and may have been modified to collect from the correct levels, e.g., if brains were smaller due to young age or genotype. In total 12×5=60 sections were collected. Sectioning levels were chosen according to the brain atlas of Paxinos and Franklin (“The Mouse Brain in Stereotaxic Coordinates”, 2nd edition, 2001). Collection of sections started at a level ˜0.2 mm lateral from midline and extend through the hemisphere to ensure systematic random sampling through the target regions (FIGS. 10 and 15). Sections were stored at −20° C. Almost the entire brain was sectioned, so the residual tissue block was disposed when all sections were collected.
For each incubation, a uniform systematic random set of five sections per mouse was selected (one section each from levels 2, 4, 6, 8, 10); for information on systematic random sampling follow this link: http://www.stereoloqy.info/sampling/ […]
Whole slide scans of the stained sections were recorded on a Zeiss automatic microscope AxioScan Z1 with high aperture lenses, equipped with a Zeiss Axiocam 506 mono and a Hitachi 3CCD HV-F202SCL camera and Zeiss ZEN 2.3 software.
Image analysis was done with Image Pro 10 (Media Cybernetics). […] Afterwards, immunofluorescence was quantitatively evaluated within the identified areas.
For quantification we used background correction if necessary and detect immunoreactive objects by adequate thresholding and morphological filtering (size, shape). […]

Data set [2] is described as follows: Body weight of NPC mice, PND 11 to Week 9. It counts as in vivo. On the procedure:
Body weights and health status were recorded daily for the first week and later once a week.
as §1
Graph represents the progress of body weights [g] per group measured daily during the first treatment week and weekly thereafter.

As to `OC[C@H]1[C@@H](O)[C@H](O)[C@@H](O)CN1CCCCCOCc1ccc(-c2ccccc2)c(F)c1` [AZ-3102], the “Mice with a high level of tremor (score of 5)” value in the data set with NPC (−/−) mice (NPC (−/−) mice treated P11-P70, observed PND 56-70, vehicle group 4 out of 5) is on record as 1 out of 24. The “Initiation, duration and strength of tremor” value with NPC (−/−) mice (NPC (−/−) mice, treated versus vehicle, PND 56-70) is given as “diminished”. The Overall clinical signs result is on record as “improved clinical signs” in the data set on NPC (−/−) mice (NPC (−/−) mice, treated versus vehicle) and “improve the clinical signs” with NPC (−/−) mice (NPC (−/−) mice, treated versus vehicle, listed as Form 3). In addition, the “Clinical signs of diseased animals” value in the data set on Hexb (−/−) mice was “improved”. In addition, in data set [1], the “Hygroscopicity (description)” value was “non-hygroscopic or substantially non-hygroscopic; also recorded: substantially non-hygroscopic”. Further, the “Calbindin-D28k immunofluorescence in the cerebellum” value with Calbindin-D28k (NPC (−/−) mice, treated versus vehicle, all readouts) was “significantly increased”. In addition, the “Calbindin-D28k immunofluorescence in the hippocampus” value in the data set on Calbindin-D28k (NPC mice, group comparison) was “no significant group differences”. Besides, in the data set with Calbindin-D28k (treated compared to vehicle treated NPC (−/−) mice, calbindin-D28k marker), the “Cerebellar Purkinje cell loss” value was “significantly limited”. Moreover, the “Body weight gain of treated NPC (−/−) mice versus untreated NPC (−/−) mice” value in data set [2] (both genders, daily oral gavage P11-P70, PND 11 to Week 9) is listed as “gained more than the NPC (−/−) untreated animals”. For the same compound, the “General health as indicated by average percent body weight gains” value in data set [2] (daily oral gavage P11-P70, 1.5 mg/kg (P11-P25) then 3 mg/kg (P26-P70)) is “not impeded”.
